Data from patent US20240247207A1, “MALTOSIDE-, LACTOBIONAMIDE-, MONOGLUCOSIDE-, BRANCHED DIGLUCOSIDE-, SULFOBETAINE-, SULFATE- OR AMINOOXIDE-BASED PERFLUORINATED DETERGENTS AND THEIR USE IN MEMBRANE-PROTEINS APPLICATIONS” (AVIGNON UNIVERSITE, priority 2021, published 2024).
Entries after “also recorded” stand apart in the source; their conditions may differ.

Experiments:
[1] = SFT for CMC determination (surface tension, Wilhelmy plate technique); assay type: physicochemical; settings: air/water interface, (20.0±0.5)° C.
Method: SFT for CMC determination. The surface activity of the compounds of the invention in solution at the air/water interface was determined using a K100 tensiometer (Kruss, Hamburg, Germany). Surface tensions were determined by dilution of stock solutions (13 g/L for compound 5a (cyF6H3Malt), 4.6 g/L for compound 5b (cyF6H4Malt), 2 g/L for compound 5c (cyF6H5Malt), 10 g/L for compound 8a (isoF5H3Malt), 1.7 g/L for compound 8c (isoF5H5Malt) and 0.4 g/L for compound 8b (isoF7H3Malt), ˜4×CMC) using the Wilhelmy plate technique. In a typical experiment, 13 concentration steps were prepared from solutions equilibrated overnight before measurement. All measurements were performed at (20.0±0.5)° C. until standard deviation reach ±0.05 or during at least 30 min.

[2] = 100 μM POPC LUVs, detergent at CMC+ca. 5 mM, 25° C., light scattering at 90°
Method: Preparation of lipid vesicles. To prepare LUVs, POPC in powder form was weighed on a high-precision XP Delta Range microbalance (Mettler Toledo, Greifensee, Switzerland) and suspended in phosphate buffer (10 mM Na2HIPO4/NaH2PO4, 150 mM NaCl, pH 7.4). The solution was vortexed for 15 min at room temperature and extruded in a LiposoFast extruder (Avestin, Mannheim, Germany) with at least 35 extrusion steps through two stacked polycarbonate membranes with a pore diameter of 100 nm (Avestin). The hydrodynamic diameter of the LUVs was distributed around 120-130 nm, as shown by DLS.
Kinetics of vesicle solubilization. For vesicle solubilization kinetics, measurements were conducted by adding a high concentration (ca. 5 mM) of the compound of the invention above its CMC to 100 μM POPC LUVs in a 3 mm×3 mm quartz glass cuvette. […] Measurements were started immediately after mixing the vesicle suspension to monitor changes in light scattering intensity, Iscatter at an angle of 90° and at 25° C.
The solubilization of preformed large unilamellar vesicles (LUVs) composed of the singly unsaturated phospholipid 1-palmitoyl-2-oleyl-sn-glycero-3-phosphocholine (POPC) was investigated.

[3] = tested on: membrane-proteins from native E. coli membranes; experiment: Extraction of membrane-proteins from native E. coli membranes, SDS-PAGE quantification; settings: for membrane-protein extraction / solubilization efficiency (in words): CMC+1, 2, 5, 10 mM, at least 16 h at 20° C., yields relative to buffer without detergent
Method: Solubilization of Membrane-Proteins from native E. coli membranes. E. coli BL21(DE3) cells were transformed with an empty pET-24 vector and selected by kanamycin resistance. After incubation in 400 mL lysogeny broth overnight at 37° C. under constant agitation (150 rpm), cells were harvested by centrifugation and washed twice with saline (154 mM NaCl). Cell pellets were resuspended in ice-cold buffer (100 mM Na2CO3, pH 11.5) and subjected to ultrasonication in an S-250A sonifier (Branson Ultrasonics, Danbury, USA) twice for 10 min each. To remove cell debris, the lysate was centrifuged at 4° C. for 20 min at 7149 rpm (3000 g). The supernatant was ultracentrifuged at 4° C. for 1 h at 31 400 rpm (100,000 g) to separate membrane fragments from soluble and peripheral proteins. Membrane pellets were washed and suspended in working buffer, ultracentrifuged again at 4° C. for 1 h at 31 400 rpm (100,000 g) to remove any residual soluble or peripheral proteins. The resulting pellets were resuspended in buffer (50 mM Tris, 200 mM NaCl, pH 7.4) to a final concentration of 100 mg wet-weight pellet per 1 mL of buffer and mixed in a 1:1 volume ratio with stock solutions of the compounds of the invention in buffer. All samples were incubated for at least 16 h at 20° C. under constant, gentle agitation (500 rpm) and subsequently ultracentrifuged at 4° C. for 1 h at 51 000 rpm (100,000 g). The solubilized supernatant containing micelles was analyzed using SDS-PAGE.
Sodium dodecyl sulphate polyacrylamide gel electrophoresis (SDS-PAGE). The solubilization efficiency of compound 5a, F6OM, F6OPC and DDM on biological membranes was assessed by SDS-PAGE using a NuPAGE Bis-Tris system (Life Technologies, Carlsbad, USA) with a polyacrylamide gradient of 4-12%. 14-μL samples were mixed with 5 μL 4×SDS sample buffer (106 mM Tris HCl, 141 mM Tris base, 2% (w v) SDS, 10% (w v) glycerol, 0.51 mM EDTA, 0.22 mM SERVA Blue G250, and 0.175 mM Phenol Red, pH 8.5) and 1 μL 1 M dithiothreitol (DTT) and boiled at 95° C. for 10 min. 12 μL of each sample was loaded on a ready-to-use NuPAGE. As reference, a standard-weight marker (Roti-Mark 10-150, Carl Roth, Karlsruhe, Germany) was used, and the working buffer was used as negative control. […] For quantification of solubilization efficiencies, gels were photographed with a C4000Z camera (Olympus, Tokyo, Japan), and protein bands were analyzed with ImageJ software.
Results. The intensities (i.e., pixel counts) of SDS-PAGE band patterns (FIG. 2) were analyzed to provide the overall protein-extraction yields which were expressed relative to the buffer without any detergent.

[4] = literature value; cited from earlier work

SMILES | CMC (critical micellar concentration) [1] | γCMC (surface tension at the CMC) [1] | time to complete solubilization of LUVs [2] | membrane-protein extraction / solubilization efficiency (in words) [3] | solubilization efficiency at low concentrations, compared with DDM (in words) ([3]; low concentrations, CMC+1-5 mM) | CMC [4]
OC[C@H]1O[C@H](O[C@H]2[C@H](O)[C@@H](O)[C@H](OCCCC3(F)C(F)(F)C(F)(F)C(F)(F)C(F)(F)C3(F)F)O[C@@H]2CO)[C@H](O)[C@@H](O)[C@@H]1O [Compound 5a, 3-(perfluorocyclohexyl)-propoxy-4-O—(α-D-glucopyranosyl)-β-D-glucopyranoside] | 3.47 mM | 23.9 mN/m | ~2 h | efficiently extracted membrane-proteins; also recorded: higher membrane-protein extraction yield than F6OM and F6OPC | better solubilization efficiencies than DDM | –
OC[C@H]1O[C@H](O[C@H]2[C@H](O)[C@@H](O)[C@H](OCCCCC3(F)C(F)(F)C(F)(F)C(F)(F)C(F)(F)C3(F)F)O[C@@H]2CO)[C@H](O)[C@@H](O)[C@@H]1O [Compound 5b, 4-(perfluorocyclohexyl)-butoxy-4-O—(α-D-glucopyranosyl)-β-D-glucopyranoside] | 2.29 mM | 22.7 mN/m | – | – | – | –
OC[C@H]1O[C@H](O[C@H]2[C@H](O)[C@@H](O)[C@H](OCCCCCC3(F)C(F)(F)C(F)(F)C(F)(F)C(F)(F)C3(F)F)O[C@@H]2CO)[C@H](O)[C@@H](O)[C@@H]1O [Compound 5c, 5-(perfluorocyclohexyl)-pentoxy-4-O—(α-D-glucopyranosyl)-β-D-glucopyranoside] | 0.70 mM | 23.16 mN/m | – | – | – | –
OC[C@H]1O[C@H](O[C@H]2[C@H](O)[C@@H](O)[C@H](OCCCC(F)(F)C(F)(F)C(F)(C(F)(F)F)C(F)(F)F)O[C@@H]2CO)[C@H](O)[C@@H](O)[C@@H]1O [Compound 8a, 3-(perfluoroisopentyl)-propoxy-4-O—(α-D-glucopyranosyl)-β-D-glucopyranoside] | 2.66 mM | 22.5 mN/m | – | – | – | –
OC[C@H]1O[C@H](O[C@H]2[C@H](O)[C@@H](O)[C@H](OCCCC(F)(F)C(F)(F)C(F)(F)C(F)(F)C(F)(C(F)(F)F)C(F)(F)F)O[C@@H]2CO)[C@H](O)[C@@H](O)[C@@H]1O [Compound 8b, 3-(perfluoroisoheptyl)-propoxy-4-O—(α-D-glucopyranosyl)-β-D-glucopyranoside] | 0.11 mM | 17.4 mN/m | – | – | – | –
OC[C@H]1O[C@H](O[C@H]2[C@H](O)[C@@H](O)[C@H](OCCCCCC(F)(F)C(F)(F)C(F)(C(F)(F)F)C(F)(F)F)O[C@@H]2CO)[C@H](O)[C@@H](O)[C@@H]1O [Compound 8c, 5-(perfluoroisopentyl)-pentoxy-4-O—(α-D-glucopyranosyl)-β-D-glucopyranoside] | 0.53 mM | 22.1 mN/m | – | – | – | –
O=C(NCCCC1(F)C(F)(F)C(F)(F)C(F)(F)C(F)(F)C1(F)F)C(O)[C@H](O)[C@H](O[C@@H]1OC(CO)[C@H](O)[C@H](O)C1O)C(O)CO (stereo partly drawn) [Compound 12, 3-(perfluorocyclohexyl)-N-propane Octahydroxy lactobionamide] | 6.32 mM | 24.4 mN/m | – | – | – | –
C[N+](C)(CCCCCC1(F)C(F)(F)C(F)(F)C(F)(F)C(F)(F)C1(F)F)CCCS(=O)(=O)[O-] [Compound 17, 3-(dimethyl(5-(perfluorocyclohexyl)pentyl)ammonio)propane-1-sulfonate] | 3.20 mM | 23.7 mN/m | – | – | – | –
OC[C@H]1O[C@H](O[C@H]2[C@H](O)[C@@H](O)[C@H](OCCC(F)(F)C(F)(F)C(F)(F)C(F)(F)C(F)(F)C(F)(F)F)O[C@@H]2CO)[C@H](O)[C@@H](O)[C@@H]1O [Compound F6OM, (1H, 1H, 2H, 2H-Perfluorooctyl)-β-D-Maltopyranoside, reference compound] | – | – | – | very limited solubilization | – | 0.7 mM
C[N+](C)(C)CCOP(=O)([O-])OCCC(F)(F)C(F)(F)C(F)(F)C(F)(F)C(F)(F)C(F)(F)F [Compound F6OPC, (1H, 1H, 2H, 2H-Perfluorooctyl)phosphocholine, reference compound] | – | – | – | very limited solubilization | – | 2.9 mM
CCCCCCCCCCCCO[C@@H]1O[C@H](CO)[C@@H](O[C@H]2O[C@H](CO)[C@@H](O)[C@H](O)[C@H]2O)[C@H](O)[C@H]1O [DDM, n-dodecyl-β-D-maltoside] | – | – | – | – | – | 0.17 mM
